Experimental data taken from ChEMBL document CHEMBL4419168, “Substituted n-([1,1''-biphenyl]-3-yl)-[1,1''-biphenyl]-3-carboxamide analogs as inhibitors for beta-catenin/b-cell lymphoma 9 interactions” (2018).

Key:
[1] = biological target: T1, beta-catenin-B-cell lymphoma 9 protein complex (Homo sapiens, UniProt P35222); experiment: Inhibition of C-terminal 6x-histidine tagged beta-catenin (138 to 686 residues) (unknown origin) expressed in Escherichia coli BL21 DE3 /human BCL9 (350 to 375 residues) protein-protein interactions incubated for 1 hr by Alpha-screen assay
T1 sequence (P35222 whole entry): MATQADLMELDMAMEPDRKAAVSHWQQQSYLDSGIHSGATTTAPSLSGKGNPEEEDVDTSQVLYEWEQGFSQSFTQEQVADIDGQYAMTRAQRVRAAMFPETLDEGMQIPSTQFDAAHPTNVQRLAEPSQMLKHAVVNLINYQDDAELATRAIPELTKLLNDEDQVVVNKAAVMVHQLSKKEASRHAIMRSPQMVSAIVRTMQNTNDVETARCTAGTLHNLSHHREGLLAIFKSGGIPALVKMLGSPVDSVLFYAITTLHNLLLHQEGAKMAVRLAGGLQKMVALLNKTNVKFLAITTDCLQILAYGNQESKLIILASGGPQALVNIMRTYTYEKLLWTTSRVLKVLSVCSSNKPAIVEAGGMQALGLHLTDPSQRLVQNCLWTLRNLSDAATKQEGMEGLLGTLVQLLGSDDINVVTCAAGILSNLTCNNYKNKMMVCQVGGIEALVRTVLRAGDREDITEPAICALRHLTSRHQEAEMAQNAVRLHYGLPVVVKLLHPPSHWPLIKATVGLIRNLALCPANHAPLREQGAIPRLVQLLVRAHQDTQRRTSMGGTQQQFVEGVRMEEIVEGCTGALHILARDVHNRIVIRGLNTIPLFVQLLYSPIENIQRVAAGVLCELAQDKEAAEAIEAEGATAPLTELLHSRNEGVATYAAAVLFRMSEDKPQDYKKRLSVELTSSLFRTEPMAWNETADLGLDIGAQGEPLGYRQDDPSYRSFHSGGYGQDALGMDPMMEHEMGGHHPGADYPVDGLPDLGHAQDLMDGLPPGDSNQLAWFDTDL
T1 sequence (O00512 whole entry): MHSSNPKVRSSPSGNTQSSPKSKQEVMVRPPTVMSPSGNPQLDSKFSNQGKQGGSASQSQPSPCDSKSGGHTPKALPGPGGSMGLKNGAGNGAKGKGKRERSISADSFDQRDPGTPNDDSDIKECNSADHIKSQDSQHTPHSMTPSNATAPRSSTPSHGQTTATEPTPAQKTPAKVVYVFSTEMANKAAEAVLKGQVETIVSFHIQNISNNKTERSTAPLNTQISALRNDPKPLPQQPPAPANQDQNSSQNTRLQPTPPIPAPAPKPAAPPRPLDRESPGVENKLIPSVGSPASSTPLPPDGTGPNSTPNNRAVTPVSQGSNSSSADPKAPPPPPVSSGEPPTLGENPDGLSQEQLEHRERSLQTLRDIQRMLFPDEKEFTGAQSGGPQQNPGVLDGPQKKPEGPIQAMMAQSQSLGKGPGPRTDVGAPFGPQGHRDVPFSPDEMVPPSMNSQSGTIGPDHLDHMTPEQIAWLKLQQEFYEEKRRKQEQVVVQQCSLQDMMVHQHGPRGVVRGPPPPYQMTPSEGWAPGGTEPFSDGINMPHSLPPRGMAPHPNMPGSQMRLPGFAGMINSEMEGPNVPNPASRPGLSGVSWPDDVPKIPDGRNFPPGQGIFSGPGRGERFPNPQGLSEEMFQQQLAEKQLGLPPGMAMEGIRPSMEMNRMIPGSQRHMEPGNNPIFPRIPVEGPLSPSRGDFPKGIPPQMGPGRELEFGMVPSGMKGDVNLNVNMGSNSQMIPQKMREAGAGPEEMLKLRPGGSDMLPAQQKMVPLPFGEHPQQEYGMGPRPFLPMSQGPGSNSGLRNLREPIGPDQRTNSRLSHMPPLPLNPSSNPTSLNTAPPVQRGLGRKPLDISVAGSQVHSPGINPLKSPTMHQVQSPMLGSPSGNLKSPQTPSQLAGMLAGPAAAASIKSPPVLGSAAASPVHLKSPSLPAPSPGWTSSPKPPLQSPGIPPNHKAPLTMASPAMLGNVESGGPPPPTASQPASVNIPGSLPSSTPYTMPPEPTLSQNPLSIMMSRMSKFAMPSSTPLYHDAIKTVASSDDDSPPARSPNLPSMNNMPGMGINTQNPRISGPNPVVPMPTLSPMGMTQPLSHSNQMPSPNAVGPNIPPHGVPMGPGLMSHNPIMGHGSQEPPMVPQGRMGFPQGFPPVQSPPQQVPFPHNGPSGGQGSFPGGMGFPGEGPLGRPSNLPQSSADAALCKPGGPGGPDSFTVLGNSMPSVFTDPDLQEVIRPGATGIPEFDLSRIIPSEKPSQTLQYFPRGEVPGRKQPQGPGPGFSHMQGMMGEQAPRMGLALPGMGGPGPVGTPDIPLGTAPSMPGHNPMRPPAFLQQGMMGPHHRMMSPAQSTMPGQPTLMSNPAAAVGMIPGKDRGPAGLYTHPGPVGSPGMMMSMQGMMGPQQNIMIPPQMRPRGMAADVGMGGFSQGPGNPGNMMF

Homo sapiens = species: Homo sapiens; experiment: Selectivity index, ratio of Ki for inhibition of C-terminal 6x-histidine tagged beta-catenin (138 to 686 residues) (unknown origin) expressed in Escherichia coli BL21 DE3/N-terminally biotinylated human E-cadherin (824 to 877 residues) protein-protein interactions by Alpha-screen assay to Ki for …
MDA-MB-231 = experiment: Cytotoxicity in human MDA-MB-231 cells assessed as reduction in cell viability incubated for 72 hrs by MTS assay; type: functional, cell-based; conditions: for IC50: MDA-MB-231, 72 h
A549 = experiment: Cytotoxicity in human A549 cells assessed as reduction in cell viability incubated for 72 hrs by MTS assay; type: functional, cell-based; conditions: A549, 72 h
SW480 [2] = experiment: Cytotoxicity in human SW480 cells assessed as reduction in cell viability incubated for 72 hrs by MTS assay; type: functional, cell-based; conditions: for IC50: SW480, 72 h
MCF-10A = experiment: Cytotoxicity in human MCF10A cells assessed as reduction in cell viability incubated for 72 hrs by MTS assay; type: cell-based
HCT-116 = experiment: Cytotoxicity in human HCT116 cells assessed as reduction in cell viability incubated for 72 hrs by MTS assay; type: functional, cell-based; conditions: for IC50: HCT-116, 72 h
[3] = biological target: beta-catenin-B-cell lymphoma 9 protein complex (Homo sapiens, UniProt P35222, D145A); experiment: Inhibition of inhibited beta-catenin D145A mutant (unknown origin) expressed in Escherichia coli BL21 DE3 /human BCL9 (350 to 375 residues) protein-protein interactions by Alpha-screen assay
SW480 [4] = experiment: Inhibition of anchorage-independent growth in human SW480 cells incubated fro 18 days by crystal violet staining based assay; type: functional, cell-based
[5] = biological target: beta-catenin-B-cell lymphoma 9 protein complex (Homo sapiens, UniProt P35222, D145A/E155A); experiment: Inhibition of inhibited beta-catenin D145A/E155A mutant (unknown origin) expressed in Escherichia coli BL21 DE3 /human BCL9 (350 to 375 residues) protein-protein interactions by Alpha-screen assay
HT-29 = experiment: Cytotoxicity in human HT-29 cells assessed as reduction in cell viability incubated for 72 hrs by MTS assay; type: functional, cell-based; conditions: for IC50: HT-29, 72 h

Row | Ki [1] [µM] | Ratio Ki (Homo sapiens) | Structure (SMILES) | IC50 (MDA-MB-231) [µM] | IC50 (SW480 [2]) [µM] | IC50 (HCT-116) [µM] | further results
1 | 11.6 |  | NCCOc1ccc(NC(=O)c2ccc(OCCN)c(-c3ccc(F)cc3)c2)cc1-c1ccc(F)cc1 |  |  |  | 
2 |  | 16 | O=C(Nc1ccc(OC2CNC2)c(-c2ccc(F)cc2)c1)c1ccc(OC2CNC2)c(-c2ccc(F)c(F)c2)c1 |  |  |  | 
3 |  | 38 | NCCOc1ccc(NC(=O)c2ccc(OCCN)c(-c3ccc(F)c(F)c3)c2)cc1-c1ccc(F)cc1 |  |  |  | 
4 |  |  | Cc1cc(C(=O)Nc2ccc(O[C@H]3CCNC3)c(-c3ccc(F)cc3)c2)ccc1O[C@H]1CCNC1 | 9.03 |  |  | 
5 | 8.71 | 30 | O=C(Nc1ccc(O[C@H]2CCNC2)c(-c2ccc(F)c(F)c2)c1)c1ccc(O[C@H]2CCNC2)c(-c2ccc(F)c(F)c2)c1 |  |  |  | 
6 | 6.65 | 35 | O=C(Nc1ccc(O[C@H]2CCNC2)c(-c2ccc(F)cc2)c1)c1ccc(O[C@H]2CCNC2)c(-c2ccc(F)cc2)c1 | 7.05 to 8.35 | 9.86 | 8.23 | IC50 (A549): 18.8 µM; IC50 (MCF-10A): 19.9 µM
7 |  |  | O=C(Nc1ccc(O[C@H]2CCNC2)c(-c2ccc(F)cc2)c1)c1ccc(O[C@H]2CCNC2)c(-c2ccc3ccccc3c2)c1 | 220 |  |  | 
8 |  |  | O=C(Nc1ccc(O[C@H]2CCNC2)c(-c2ccc(F)cc2)c1)c1ccc(O[C@H]2CCNC2)c(-c2ccc(F)c(F)c2)c1 | 2.32 to 2.47 | 3.5 | 3.07 | Ki [3]: 13.4 µM; inhibition (MDA-MB-231): Dose-dependent effect; IC50 (A549): 8.79 µM; inhibition (SW480 [2]): Dose-dependent effect; inhibition (SW480 [4]): Dose-dependent effect; IC50 (MCF-10A): 9.07 µM; inhibition (HCT-116): Dose-dependent effect; Ki [5]: 96.6 µM; inhibition (HT-29): Dose-dependent effect; IC50 (HT-29): 2.97 µM
9 |  | 345 | O=C(NCCCC(=O)N1CCNCC1)c1ccc(-c2cc(C(=O)Nc3ccc(O[C@H]4CCNC4)c(-c4ccc(F)cc4)c3)ccc2O[C@H]2CCNC2)cc1 |  |  |  | 

Row | Structure (SMILES) | Ki [1] [µM] | Ratio Ki (Homo sapiens) | IC50 (MDA-MB-231) [µM] | IC50 (SW480 [2]) [µM] | IC50 (HCT-116) [µM] | further results
10 | CC(C)c1cc2c(c(O)c1O)[C@@]1(C(=O)O)CCCC(C)(C)[C@@H]1CC2 [CARNOSIC ACID] |  | 73 |  | 10.5 | 8.67 | IC50 (HT-29): 20.2 µM
